Reference: patent US9926304B2, “1-(arylmethyl)quinazoline-2,4(1H,3H)-diones as PARP inhibitors and the use thereof” (Impact Therapeutics, Inc., priority 2011, dated 2018)
Like-named read-outs stand apart in the source and are kept apart here. Each block holds one molecule with its values, some of them ahead of it.

Experiments:
[1] = test system: SW620 human colorectal cancer cells; test: MTT based cell viability assay: potentiation of the growth inhibiting activity of MMS
PARP-1 enzyme = target: T1, PARP-1 enzyme (Homo sapiens, UniProt P09874); test: PARP-1 enzymatic activity assay (Trevigen 96-well kit 4676-096-K); format: biochemical; settings: 0.5 unit PARP-1, histone pre-coated plate, 60 min at room temperature; read-out: IC50 (nM), inhibitory effect on PARP-1 enzymatic activity
T1 construct: purchased Trevigen, Inc. 4676-096-K
T1 sequence (P09874 whole entry): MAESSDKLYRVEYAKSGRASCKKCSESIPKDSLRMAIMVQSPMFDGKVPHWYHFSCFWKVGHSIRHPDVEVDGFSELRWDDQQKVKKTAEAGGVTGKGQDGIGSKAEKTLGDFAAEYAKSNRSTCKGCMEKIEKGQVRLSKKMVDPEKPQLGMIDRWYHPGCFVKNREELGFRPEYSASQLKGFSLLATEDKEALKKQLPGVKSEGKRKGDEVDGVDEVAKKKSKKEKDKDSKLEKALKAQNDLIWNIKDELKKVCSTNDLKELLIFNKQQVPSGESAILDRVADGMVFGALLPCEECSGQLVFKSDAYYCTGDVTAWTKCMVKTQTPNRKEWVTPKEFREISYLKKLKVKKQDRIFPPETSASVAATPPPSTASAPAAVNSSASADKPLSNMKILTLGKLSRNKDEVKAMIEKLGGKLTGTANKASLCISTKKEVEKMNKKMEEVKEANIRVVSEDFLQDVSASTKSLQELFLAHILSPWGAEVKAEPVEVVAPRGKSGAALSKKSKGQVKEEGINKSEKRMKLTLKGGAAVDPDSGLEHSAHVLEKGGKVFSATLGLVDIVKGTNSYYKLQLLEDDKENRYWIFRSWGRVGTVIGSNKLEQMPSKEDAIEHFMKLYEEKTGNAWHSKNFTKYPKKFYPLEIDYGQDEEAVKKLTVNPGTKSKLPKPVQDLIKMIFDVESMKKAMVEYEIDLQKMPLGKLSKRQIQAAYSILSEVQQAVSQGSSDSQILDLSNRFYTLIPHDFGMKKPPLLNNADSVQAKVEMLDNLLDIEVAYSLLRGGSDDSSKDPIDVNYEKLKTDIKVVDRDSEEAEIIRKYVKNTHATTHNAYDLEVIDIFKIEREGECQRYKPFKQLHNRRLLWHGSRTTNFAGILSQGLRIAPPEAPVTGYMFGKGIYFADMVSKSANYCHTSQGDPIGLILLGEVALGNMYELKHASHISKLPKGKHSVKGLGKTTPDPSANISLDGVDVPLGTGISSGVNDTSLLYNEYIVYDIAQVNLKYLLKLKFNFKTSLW
Source text: Measurement of the inhibitory effect of 1-(3-(4-(pyrimidin-2-yl)piperazine-1-carbonyl)benzyl)quinazoline-2,4(1H,3H)-dione and analogs on PARP-1 enzymatic activity
Briefly, PARP-1 catalyzes the NAD-dependent addition of poly(ADP-ribose) to its nuclear protein substrates such as histones. The assay kit measures the incorporation of biotynylated poly(ADP-ribose) onto histone proteins in a 96-well format.

[2] = test system: Human breast cancer cell line T47D; test: Cell based caspase-3 activity assay: potentiation of MMS induced apoptosis; settings: read-out: EC50 (nM), potentiation of the apoptosis inducing activity of MMS
In short: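 T47D cells were exposed for 24 h to compound plus a minimally apoptotic MMS dose (medium containing 11.1 μg/ml MMS). Lysates were incubated 3 h at 37 °C with (Ac-DEVD)2-R110 caspase-3 substrate (20 μM in added buffer) and read at ex 496/em 520 nm. EC50 came from a sigmoidal fit of RFU versus log concentration.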

[3] = test system: BRCA-2 deficient CAPAN-1 human pancreatic cancer cells; test: MTT based cell viability assay: growth inhibition of BRCA-2 deficient CAPAN-1 cells; settings: 240 h, compound alone, 10 day assay
advanced breast cancer = settings: Phase II clinical trial; cited from earlier work
[4] = Homo sapiens, SW-620, 120 h, read-out: IC50 (nM), potentiation of the growth inhibiting activity of MMS, SW620 cells, 1.7 μg/ml MMS, 5 days (120 hours), MTT
[5] = Homo sapiens, T47D, 24 h, T47D cells, 11.1 μg/ml MMS, 24 hours, intracellular caspase-3 activity
[6] = read-out: IC50 (nM), potentiation of the growth inhibiting activity of MMS, SW620 cells, 1.7 μg/ml MMS, 5 days (120 hours), MTT

SMILES: O=C(c1cc(Cn2c(=O)[nH]c(=O)c3cc(F)ccc32)ccc1F)N1CCN(c2ncccn2)CC1 [Example 144, 6-Fluoro-1-(4-fluoro-3-(4-(pyrimidin-2-yl)piperazine-1-carbonyl)benzyl)quinazoline-2,4(1H,3H)-dione]
IC50 [1, 4]: 2.8 nM | IC50 (PARP-1 enzyme): 1.15 nM | EC50 [2, 5]: 3.4 nM | IC50 [3]: 78 nM

SMILES: O=C(c1cc(Cn2c(=O)[nH]c(=O)c3ccccc32)ccc1F)N1CCN(c2ncccn2)CC1 [Example 25, 1-(4-Fluoro-3-(4-(pyrimidin-2-yl)piperazine-1-carbonyl)benzyl)quinazoline-2,4(1H,3H)-dione]
IC50 [1, 6]: 9.8 nM | IC50 (PARP-1 enzyme): 0.21 nM | EC50 [2, 5]: 3.9 nM | IC50 [3]: 98 nM

SMILES: O=C(c1cccc(Cn2c(=O)[nH]c(=O)c3cc(F)ccc32)c1)N1CCN(c2ncccn2)CC1 [Example 139, 6-Fluoro-1-(3-(4-(pyrimidin-2-yl)piperazine-1-carbonyl)benzyl)quinazoline-2,4(1H,3H)-dione]
IC50 [1, 4]: 16 nM | IC50 (PARP-1 enzyme): 1.3 nM | EC50 [2, 5]: 4 nM | IC50 [3]: 36 nM

SMILES: O=C(c1cc(Cn2c(=O)[nH]c(=O)c3c(F)cccc32)ccc1F)N1CCN(c2ncccn2)CC1 [Example 132, 5-Fluoro-1-(4-fluoro-3-(4-(pyrimidin-2-yl)piperazine-1-carbonyl)benzyl)quinazoline-2,4(1H,3H)-dione]
IC50 [1, 4]: 4.1 nM | IC50 (PARP-1 enzyme): 1.19 nM | EC50 [2, 5]: 0.93 nM | IC50 [3]: 17 nM

SMILES: O=C(c1cc(Cn2c(=O)[nH]c(=O)c3c(F)cccc32)ccc1F)N1CCN(c2ccccn2)CC1 [Example 135, 5-Fluoro-1-(4-fluoro-3-(4-(pyridin-2-yl)piperazine-1-carbonyl)benzyl)quinazoline-2,4(1H,3H)-dione]
IC50 [1, 4]: 6.8 nM | IC50 (PARP-1 enzyme): 1.74 nM | EC50 [2, 5]: 9.8 nM

SMILES: O=C(c1cc(Cn2c(=O)[nH]c(=O)c3cc(F)ccc32)ccc1F)N1CCN(C(=O)C2CCCCC2)CC1 [Example 147, 1-(3-(4-(Cyclohexylcarbonyl)piperazine-1-carbonyl)-4-fluorobenzyl)-6-fluoroquinazoline-2,4(1H,3H)-dione]
IC50 [1, 4]: 2.7 nM | IC50 (PARP-1 enzyme): 1.2 nM | EC50 [2, 5]: 3.4 nM | IC50 [3]: 47 nM

SMILES: O=C(c1cc(Cc2n[nH]c(=O)c3ccccc23)ccc1F)N1CCN(C(=O)C2CC2)CC1 [AZD2281, olaparib, reference compound]
IC50 ([1]; Homo sapiens, SW-620, 120 h, read-out: IC50 (nM), potentiation of the growth inhibiting activity of MMS): 28 nM | EC50 ([2]; Homo sapiens, T47D, 24 h): 24 nM | efficacy in treatment of advanced breast cancer (advanced breast cancer): effective

SMILES: O=C(c1ccccc1)N1CCN(C(=O)c2cccc(Cn3c(=O)[nH]c(=O)c4ccccc43)c2)CC1 [Example 8, 1-(3-(4-Benzoylpiperazine-1-carbonyl)benzyl)quinazoline-2,4(1H,3H)-dione]
IC50 [1, 4]: 112 nM | IC50 (PARP-1 enzyme): 5.3 nM | EC50 [2, 5]: 120 nM | IC50 [3]: 2360 nM

Further lines, results first:

IC50 [1, 4]: 90 nM | IC50 (PARP-1 enzyme): 4.2 nM | EC50 [2, 5]: 56 nM | IC50 [3]: 445 nM
SMILES: O=C(c1cccc(Cn2c(=O)[nH]c(=O)c3ccccc32)c1)N1CCN(c2ccccn2)CC1 [Example 3, 1-(3-(4-(Pyridin-2-yl)piperazine-1-carbonyl)benzyl)quinazoline-2,4(1H,3H)-dione]

IC50 [1, 4]: 13 nM | IC50 (PARP-1 enzyme): 0.37 nM | EC50 [2, 5]: 4.1 nM | IC50 [3]: 44 nM
SMILES: O=C(c1cccc(Cn2c(=O)[nH]c(=O)c3c(F)cccc32)c1)N1CCN(c2ncccn2)CC1 [Example 127, 5-Fluoro-1-(3-(4-(pyrimidin-2-yl)piperazine-1-carbonyl)benzyl)quinazoline-2,4(1H,3H)-dione]

IC50 [1, 4]: 6.8 nM | IC50 (PARP-1 enzyme): 0.88 nM | EC50 [2, 5]: 5.7 nM | IC50 [3]: 318 nM
SMILES: O=C(c1cc(Cn2c(=O)[nH]c(=O)c3ccccc32)ccc1F)N1CCN(C(=O)C2CCC2)CC1 [Example 44, 1-(3-(4-(Cyclobutylcarbonyl)piperazine-1-carbonyl)-4-fluorobenzyl)quinazoline-2,4(1H,3H)-dione]

IC50 [1, 6]: 12 nM | IC50 (PARP-1 enzyme): 0.96 nM | EC50 ([2]; T47D cells, 11.1 μg/ml MMS, 24 hours, intracellular caspase-3 activity): 12 nM | IC50 [3]: 55 nM
SMILES: O=C(c1cccc(Cn2c(=O)[nH]c(=O)c3ccccc32)c1)N1CCN(c2ncccn2)CC1 [Example 4, 1-(3-(4-(Pyrimidin-2-yl)piperazine-1-carbonyl)benzyl)quinazoline-2,4(1H,3H)-dione]

IC50 [1, 4]: 10 nM | IC50 (PARP-1 enzyme): 2.2 nM | IC50 [3]: 736 nM
SMILES: O=C(c1cc(Cn2c(=O)[nH]c(=O)c3c(F)cccc32)ccc1F)N1CCN(c2nccs2)CC1 [Example 189, 5-Fluoro-1-(4-fluoro-3-(4-(thiazol-2-yl)piperazine-1-carbonyl)benzyl)quinazoline-2,4(1H,3H)-dione]
